Data reported in patent publication US20250230193A1, “CYCLIC COMPOUND HAVING SELECTIVE KRAS INHIBITORY EFFECT ON HRAS AND NRAS” (CHUGAI SEIYAKU KABUSHIKI KAISHA, priority 2022, published 2025).

How the values were obtained:
[1] = molecular target: GDP-bound NRAS wild-type protein (Homo sapiens, UniProt P01111); assay: Binding to NRAS by surface plasmon resonance (SPR), Single Cycle Kinetics; details: SPR; KD ratio class
[2] = system: human lung cancer strain NCI-H441; assay: cells; details: NCI-H441, 96 h, read-out: NCI-H441 IC50 (nM)
[3] = molecular target: GDP-bound HRAS wild-type protein (Homo sapiens, UniProt P01112); assay: Binding to HRAS by surface plasmon resonance (SPR), Single Cycle Kinetics; details: SPR; KD ratio class
Chain of GDP-bound HRAS wild-type protein (P01112 whole entry): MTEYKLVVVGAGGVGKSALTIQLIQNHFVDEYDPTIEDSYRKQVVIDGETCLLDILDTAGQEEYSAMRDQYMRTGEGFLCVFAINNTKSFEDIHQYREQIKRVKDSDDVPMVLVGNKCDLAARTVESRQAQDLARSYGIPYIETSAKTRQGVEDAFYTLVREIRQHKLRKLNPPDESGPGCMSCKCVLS

Chain of GDP-bound NRAS wild-type protein (P01111 whole entry): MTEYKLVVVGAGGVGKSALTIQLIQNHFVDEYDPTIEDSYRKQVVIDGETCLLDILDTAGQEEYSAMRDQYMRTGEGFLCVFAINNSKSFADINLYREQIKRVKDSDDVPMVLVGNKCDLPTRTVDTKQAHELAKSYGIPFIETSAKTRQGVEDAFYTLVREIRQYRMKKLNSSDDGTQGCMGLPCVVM

## CCO[C@@H]1C[C@H]2C(=O)NC3(CC(C)(C)C3)C(=O)N(C)[C@@H](C3CCCC3)C(=O)N(C)[C@H](C(=O)N(C)C)CC(=O)N(C)[C@@H](CC)C(=O)N[C@@H]([C@@H](C)CC)C(=O)N(C)CC(=O)N(C)[C@H]3C/C=C\CCN(C3=O)[C@@H](Cc3ccc(C(F)(F)F)cc3)C(=O)N(C)CC(=O)N[C@@H](CCc3ccc(C(F)(F)F)c(OC)c3)C(=O)N2C1 [PP1559]
[1]
  NRAS/KRAS (ratio of KD value for GDP-bound NRAS wild-type protein to KD value for KRAS): A (a compound having 10 or more and less than 20 is denoted as A)
[2]
  IC50: 1.8 nM
[3]
  HRAS/KRAS (ratio of KD value for GDP-bound HRAS wild-type protein to KD value for KRAS): A (a compound having 10 or more and less than 20 is denoted as A)

## CCO[C@@H]1C[C@H]2C(=O)NC3(CCCC3)C(=O)N(C)[C@@H](C3CCCC3)C(=O)N(C)[C@H](C(=O)N3CCOCC3)CC(=O)N(C)[C@@H](CC)C(=O)N[C@@H]([C@@H](C)CC)C(=O)N(C)CC(=O)N(C)[C@H]3C[C@@H](C)[C@@H](C)CN(C3=O)[C@@H](Cc3ccc(C(F)(F)F)cc3)C(=O)N(C)CC(=O)N[C@@H](CCc3ccc(C(F)(F)F)c(Cl)c3)C(=O)N2C1 [PP1359]
[1]
  NRAS/KRAS (ratio of KD value for GDP-bound NRAS wild-type protein to KD value for KRAS): A (a compound having 10 or more and less than 20 is denoted as A)
[2]
  IC50: 3.2 nM
[3]
  HRAS/KRAS (ratio of KD value for GDP-bound HRAS wild-type protein to KD value for KRAS): B (a compound having 3 or more and less than 10 is denoted as B)

## CCC[C@H]1C(=O)N[C@@H]([C@@H](C)CC)C(=O)N(C)CC(=O)N(C)[C@H]2C/C=C\CCN(C2=O)[C@@H](Cc2ccc(C(F)(F)F)cc2)C(=O)N(C)CC(=O)N[C@@H](CCc2ccc3sccc3c2)C(=O)N2C[C@H](OCC)C[C@H]2C(=O)NC2(CCC2)C(=O)N(C)[C@@H](C2CCCC2)C(=O)N(C)[C@H](C(=O)N(C)C)CC(=O)N1C [PP1256]
[1]
  NRAS/KRAS (ratio of KD value for GDP-bound NRAS wild-type protein to KD value for KRAS): A (a compound having 10 or more and less than 20 is denoted as A)
[2]
  IC50: 69 nM
[3]
  HRAS/KRAS (ratio of KD value for GDP-bound HRAS wild-type protein to KD value for KRAS): A (a compound having 10 or more and less than 20 is denoted as A)

## CCO[C@@H]1C[C@H]2C(=O)NC3(CCCC3)C(=O)N(C)[C@@H](C3CCCC3)C(=O)N(C)[C@H](C(=O)N3CCOCC3)CC(=O)N(C)[C@@H](CC)C(=O)N[C@@H]([C@@H](C)CC)C(=O)N(C)CC(=O)N(C)[C@H]3CC[C@@H](C)CN(C3=O)[C@@H](Cc3ccc(C(F)(F)F)cc3)C(=O)N(C)CC(=O)N[C@@H](CCc3ccc(C(F)(F)F)c(Cl)c3)C(=O)N2C1 [PP1377]
[1]
  NRAS/KRAS (ratio of KD value for GDP-bound NRAS wild-type protein to KD value for KRAS): B (a compound having 3 or more and less than 10 is denoted as B)
[2]
  IC50: 5.8 nM
[3]
  HRAS/KRAS (ratio of KD value for GDP-bound HRAS wild-type protein to KD value for KRAS): B (a compound having 3 or more and less than 10 is denoted as B)

## CCCOC[C@H]1C(=O)N[C@@H]([C@@H](C)CC)C(=O)N(C)CC(=O)N(C)[C@H]2C/C=C\CCN(C2=O)[C@@H](Cc2ccc(C)cc2)C(=O)N(C)CC(=O)N[C@@H](CCc2cc(F)c(C(F)(F)F)c(F)c2)C(=O)N2C[C@H](OCC)C[C@H]2C(=O)NC2(CCCC2)C(=O)N(C)[C@@H](C2CCCC2)C(=O)N(C)[C@H](C(=O)N2CCCC2)CC(=O)N1C [PP1401]
[1]
  NRAS/KRAS (ratio of KD value for GDP-bound NRAS wild-type protein to KD value for KRAS): A (a compound having 10 or more and less than 20 is denoted as A)
[2]
  IC50: 34.4 nM
[3]
  HRAS/KRAS (ratio of KD value for GDP-bound HRAS wild-type protein to KD value for KRAS): A (a compound having 10 or more and less than 20 is denoted as A)

## CCO[C@@H]1C[C@H]2C(=O)NC3(CC(C)(C)C3)C(=O)N(C)[C@@H](C(CC)CC)C(=O)N3CCC[C@@H]3CC(=O)N(C)[C@@H](CC)C(=O)N[C@@H]([C@@H](C)CC)C(=O)N(C)CC(=O)N(C)[C@H]3C/C=C\CCN(C3=O)[C@@H](Cc3ccc(C(F)(F)F)cc3)C(=O)N(C)CC(=O)N[C@@H](CCc3cc(F)c(C(F)(F)F)c(F)c3)C(=O)N2C1 [PP1605]
[1]
  NRAS/KRAS (ratio of KD value for GDP-bound NRAS wild-type protein to KD value for KRAS): A (a compound having 10 or more and less than 20 is denoted as A)
[2]
  IC50: 31.6 nM
[3]
  HRAS/KRAS (ratio of KD value for GDP-bound HRAS wild-type protein to KD value for KRAS): A (a compound having 10 or more and less than 20 is denoted as A)
